Patent US9221833B2, “Antiviral compounds” (GILEAD PHARMASSET LLC, priority 2011, dated 2015)
Where two headings read alike, the source gives them in different places.

Key:
[1] = test system: genotype 2a JFH-1 replicon (L31 present in NS5A); assay: microbe, parasite or virus in culture; format: cell-based, HCV; details: Hepatitis C virus, read-out: 2a JFH
[2] = test system: genotype 1b Con1 replicon; assay: microbe, parasite or virus in culture; format: cell-based, HCV
Method: (§1) Evaluation of cell-based anti-HCV activity: Antiviral potency (EC50) was determined using a Renilla luciferase (RLuc)-based HCV replicon reporter assay. […] To perform the assay for genotype 2a (with M31 present in NS5A) or 2b, NS5A chimeric genotype 2a JFH-1 replicons that encodes a RLuc-Neo reporter and either genotype 2a J6 strain NS5A gene or genotype 2b MD2b-1 strain NS5A gene (both with M31 present) respectively, were either transiently transfected (t) into Huh-Lunet cells or were established as stably replicating replicon cells (s) is provided. Either cells were dispensed into 384-well plates for EC50 assays. To perform the assay for genotype 3 and 4, NS5A chimeric genotype 1b Con1 replicons that encodes a Pi-RLuc reporter and either genotype 3a S52 strain NS5A gene or genotype 4a ED43 strain NS5A gene respectively, were transiently transfected (t) into Huh-Lunet cells, which were subsequently dispensed into 384-well plates. Compounds were dissolved in DMSO at a concentration of 10 mM and diluted in DMSO either manually or using an automated pipeting instrument. Serially 3-fold diluted compounds were either manually mixed with cell culture media and added to the seeded cells or directly added to the cells using an automated instrument. […] 72 hours later, cells were lysed and Renilla luciferase activity quantified as recommended by the manufacturer (Promega-Madison, Wis.). Non-linear regression was performed to calculate EC50 values.

[3] = test system: genotype 2b MD2b-1 strain NS5A gene (M31 present); assay: microbe, parasite or virus in culture; format: cell-based, HCV
Method: as §1

genotype 1a H77 replicon = assay: microbe, parasite or virus in culture; format: cell-based, HCV; details: Hepatitis C virus
Method: as §1

[4] = test system: genotype 2a J6 strain NS5A gene (M31 present); assay: Replicon assay, NS5A chimeric 2a JFH-1 replicon with 2a J6 NS5A, transient (t) or stable (s), Huh-Lunet cells; format: cell-based, HCV
Method: as §1

[5] = test system: genotype 3a S52 strain NS5A gene; assay: Replicon assay, NS5A chimeric 1b Con1 replicon with 3a NS5A, transiently transfected Huh-Lunet cells; format: cell-based, HCV
Method: as §1

[6] = test system: genotype 4a ED43 strain NS5A gene; assay: Replicon assay, NS5A chimeric 1b Con1 replicon with 4a NS5A, transiently transfected Huh-Lunet cells; format: cell-based, HCV; details: Hepatitis C virus
Method: as §1, with “[…],” for “were transiently transfected (t) into Huh-Lunet cells,”

Q30R in genotype 1a NS5A = assay: Antiviral potency against resistance mutant, 1a Pi-Rluc replicon in Huh-7-derived cured-51 cells; format: cell-based, HCV
Method: as §1
To determine the antiviral potency (EC50) against resistance mutants, resistance mutations, including M28T, Q30R, Q30H, L31M, and Y93C in genotype 1a NS5A and Y93H in genotype 1b NS5A, were introduced individually into either 1a Pi-Rluc or 1b Pi-Rluc replicons by site directed mutagenesis. Replicon RNA of each resistant mutant was transiently transfected into Huh-7-derived cured-51 cells and antiviral potency was determined on these transfected cells as described above.

[7] = test system: genotype 2a JFH-1 replicon (L31 present in NS5A); assay: microbe, parasite or virus in culture; format: cell-based, HCV
Method: as §1

[8] = IV and PO Single Dose Pharmacokinetic Studies in SD Rats; format: in vivo, male Sprague-Dawley (SD) rats; details: oral bioavailability, PO 2 mg/kg vs IV infusion 1 mg/kg
Method: IV and PO Single Dose Pharmacokinetic Studies in SD Rats: The pharmacokinetics of selected compounds was characterized in male Sprague-Dawley (SD) rats (250-300g). […] The intravenous (IV) dosing vehicle was 5% ethanol, 35% polyethylene glycol 400 (PEG 400) and 60% water pH 2.0. […] Serial blood samples (approximately 0.3 mL each) were collected from jugular vein or other suitable vein at specified time points. […] The blood samples were collected into Vacutainer™ tubes containing EDTA-K3 as the anti-coagulant and were centrifuged at approximately 4° C. to obtain plasma. The plasma samples were stored at −20° C. until analysis by LC/MS/MS. […] Standard curve and quality control samples were prepared in male rat plasma and processed in the same way as the test samples to generate quantitative data. […] Values below the lower limit of quantification (LLOQ) were assigned a value of zero if predose and treated as missing thereafter. Area under the curve (AUC) was calculated using the linear trapezoidal rule. The oral bioavailability (% F) was determined by comparison of the area under the curve (AUC) of the compound and/or a metabolite generated in plasma following oral administration to that generated following intravenous administration.

[9] = Hepatitis C virus, read-out: 1b (nM)
[10] = Hepatitis C virus, read-out: 2b
[11] = Hepatitis C virus, read-out: 2a J6
[12] = Hepatitis C virus, read-out: 2a JFH (nM)
[13] = Hepatitis C virus, read-out: 2b (s) (nM)
[14] = Hepatitis C virus, read-out: 2b (t) (nM)
[15] = Hepatitis C virus, read-out: 2a J6 (t) (nM)

Row | Structure (SMILES) | EC50 [1] [nM] | EC50 [2, 9] [nM] | EC50 [3, 10] [nM] | EC50 (genotype 1a H77 replicon; read-out: 1a) [nM] | EC50 [4, 11] [nM] | EC50 ([6]; read-out: 4a) [nM] | EC50 ([6]; read-out: 4a (s) (nM)) [nM] | EC50 [7, 12] [nM] | EC50 [3, 13] [nM] | EC50 [3, 14] [nM] | EC50 (genotype 1a H77 replicon; read-out: 1a (nM)) [nM] | EC50 [4, 15] [nM] | other results
1 | CCC(C)[C@H](NC(=O)OC)C(=O)N1C[C@@H](C)CC1c1ncc(-c2ccc3c(c2)COc2cc4c(ccc5nc([C@@H]6C[C@H](COC)CN6C(=O)[C@@H](NC(=O)OC)C(C)OC)[nH]c54)cc2-3)[nH]1 (stereo in doubt) [Example QD, Methyl {(2S,3R)-1-[(2S,4S)-2-(5-{2-[(2S,4S)-1-[N-(methoxycarbonyl)-O-methyl-L-allothreonyl]-4-(methoxymethyl)pyrrolidin-2-yl]-1,11-dihydroisochromeno[4′,3′:6,7]naphtho[1,2-d]imidazol-9-yl}-1H-imidazol-2-yl)-4-methylpyrrolidin-1-yl]-3-methyl-1-oxopentan-2-yl}carbamate] | < 1 | 0.03 | < 1 | < 1 | < 1 |  |  |  |  |  |  |  | 
2 | COC(=O)NC(C(=O)N1CCCC1c1nc2ccc3cc4c(cc3c2[nH]1)OCc1cc(-c2cnc(C3CCCN3C(=O)C(NC(=O)O)C(C)C)[nH]2)ccc1-4)c1ccccc1 (stereo not drawn) [Example LQ, [1-(2-{5-[2-(1-{[(Methoxycarbonyl)amino](phenyl)acetyl}pyrrolidin-2-yl)-1,11-dihydroisochromeno[4′,3′:6,7]naphtho[1,2-d]imidazol-9-yl]-1H-imidazol-2-yl}pyrrolidin-1-yl)-3-methyl-1-oxobutan-2-yl]carbamic acid] | < 1 | 0.02 | < 1 | < 1 | < 1 | < 1 | 0.02 | 0.004 | 0.035 | 0.012 | 0.022 | 0.134 | EC50 ([5]; Hepatitis C virus, read-out: 3a): < 1 nM; EC50 ([5]; Hepatitis C virus, read-out: 3a (nM)): 0.005 nM; EC50 ([6]; read-out: 4a (t) (nM)): 0.008 nM; EC50 (Q30R in genotype 1a NS5A; Hepatitis C virus, read-out: 1a Q30R): < 1 nM; EC50 (Q30R in genotype 1a NS5A; Hepatitis C virus, read-out: 1a Q30R (nM)): 0.135 nM; EC50 ([4]; Hepatitis C virus, read-out: 2a J6 (s) (nM)): 0.543 nM
3 | COC[C@H]1C[C@@H](c2nc3ccc4cc5c(cc4c3[nH]2)OCc2cc(-c3cnc([C@@H]4C[C@H]6C[C@H]6N4C(=O)[C@@H](NC(=O)OC)[C@@H](C)OC)[nH]3)ccc2-5)N(C(=O)[C@H](NC(=O)OC)c2ccccc2)C1 [Example MX] | < 1 | 0.076 | < 1 | < 1 | < 1 | < 1 | 0.033 | 0.024 | 0.139 | 0.07 | 0.036 | 0.035 | 
4 | COC[C@H]1C[C@@H](c2nc3ccc4cc5c(cc4c3[nH]2)OCc2cc(-c3cnc([C@@H]4CC[C@H](C)N4C(=O)[C@@H](NC(=O)OC)C(C)C)[nH]3)ccc2-5)N(C(=O)[C@@H](NC(=O)OC)[C@@H](C)OC)C1 [Example OM, Methyl {(2S)-1-[(2S,4S)-2-(5-{2-[(2S,5S)-1-{(2S,3R)-3-methoxy-2-[(methoxycarbonyl)amino]butanoyl}-4-(methoxymethyl)pyrrolidin-2-yl]-1,11-dihydroisochromeno[4′,3′:6,7]naphtho[1,2-d]imidazol-9-yl}-1H-imidazol-2-yl)-5-methylpyrrolidin-1-yl]-3-methyl-1-oxobutan-2-yl}carbamate] |  |  |  |  |  |  |  |  |  |  |  |  | Rat % F [8]: 12.2%; EC50 ([5]; genotype 3a, EC50 range class, read-out: 3a): < 1 nM; EC50 ([5]; genotype 3a, read-out: 3a): 0.035 nM; EC50 (Q30R in genotype 1a NS5A; genotype 1a Q30R resistance mutant, EC50 range class, read-out: 1a Q30R): < 1 nM; EC50 (Q30R in genotype 1a NS5A; genotype 1a Q30R resistance mutant, read-out: 1a Q30R): 0.035 nM; EC50 ([2]; read-out: 1b): 0.019 nM; EC50 ([7]; genotype 2a JFH replicon, EC50 range class, read-out: 2a JFH): < 1 nM; EC50 ([7]; genotype 2a JFH replicon, read-out: 2a JFH): 0.009 nM; EC50 ([3]; genotype 2b, EC50 range class, transiently transfected cells (t), if unavailable stably replicating cells (s), read-out: 2b): < 1 nM; EC50 ([3]; stably replicating cells (s), read-out: 2b (s)): 0.054 nM; EC50 ([3]; transiently transfected cells (t), read-out: 2b (t)): 0.053 nM; EC50 ([4]; genotype 2a J6, EC50 range class, transiently transfected cells (t), if unavailable stably replicating cells (s), read-out: 2a J6): < 1 nM; EC50 ([4]; transiently transfected cells (t), read-out: 2a J6 (t)): 0.045 nM
